Assay results from ChEMBL document CHEMBL1149896, “Abietane diterpenoids from Clerodendrum bungei” (J Nat Prod, 2008).

What was measured:
HEK293 [1] = assay: Cell cycle arrest in HEK293 cells assessed as accumulation at S phase at 5 uM after 24 hrs by flow cytometry; format: functional, Homo sapiens
HEK293 [2] = assay: Cell cycle arrest in HEK293 cells assessed as accumulation at G2/M phase at 5 nM after 24 hrs by flow cytometry; format: functional, Homo sapiens
HEK293 [3] = assay: Cell cycle arrest in HEK293 cells assessed as accumulation at G2/M phase at 2.5 uM after 24 hrs by flow cytometry; format: functional, Homo sapiens
HEK293 [4] = assay: Cell cycle arrest in HEK293 cells assessed as accumulation at S phase at 2.5 uM after 24 hrs by flow cytometry; format: functional, Homo sapiens
HEK293 [5] = assay: Cell cycle arrest in HEK293 cells assessed as accumulation at G2/M phase at 5 uM after 24 hrs by flow cytometry; format: functional, Homo sapiens
HEK293 [6] = assay: Cell cycle arrest in HEK293 cells assessed as accumulation at G1 phase at 0.5 […] after 24 hrs by flow cytometry; format: functional, Homo sapiens
HEK293 [7] = assay: Cell cycle arrest in HEK293 cells assessed as accumulation at G2/M phase at 0.5 uM after 24 hrs by flow cytometry; format: functional, Homo sapiens
HEK293 [8] = assay: Cytotoxicity against HEK293 cells after 48 hrs by MTT assay; format: cell-based; conditions: Homo sapiens, HEK293, 48 h
B16 = assay: Cytotoxicity against mouse B16 cells after 48 hrs by MTT assay; format: functional, cell-based; conditions: B16, 48 h
HEK293 [9] = assay: Cell cycle arrest in HEK293 cells assessed as accumulation at G2/M phase at 10 uM after 24 hrs by flow cytometry; format: functional, Homo sapiens
HEK293 [10] = assay: Cell cycle arrest in HEK293 cells assessed as accumulation at G1 phase at 2.5 uM after 24 hrs by flow cytometry; format: functional, Homo sapiens
HEK293 [11] = assay: Cell cycle arrest in HEK293 cells assessed as accumulation at G1 phase at 10 uM after 24 hrs by flow cytometry; format: functional, Homo sapiens
HEK293 [12] = assay: Cell cycle arrest in HEK293 cells assessed as accumulation at S phase at 5 nM after 24 hrs by flow cytometry; format: functional, Homo sapiens
HEK293 [13] = assay: Cell cycle arrest in HEK293 cells assessed as accumulation at G1 phase at 5 uM after 24 hrs by flow cytometry; format: functional, Homo sapiens
HGC-27 = assay: Cytotoxicity against human HGC27 cells after 48 hrs by MTT assay; format: functional, cell-based; conditions: HGC-27, 48 h
HEK293 [14] = assay: Cell cycle arrest in HEK293 cells assessed as accumulation at G1 phase at 5 nM after 24 hrs by flow cytometry; format: functional, Homo sapiens
HEK293 [15] = assay: Cell cycle arrest in HEK293 cells assessed as accumulation at S phase at 10 uM after 24 hrs by flow cytometry; format: functional, Homo sapiens
HEK293 [16] = assay: Cell cycle arrest in HEK293 cells assessed as accumulation at S phase at 0.5 uM after 24 hrs by flow cytometry; format: functional, Homo sapiens

SMILES	IC50 (HEK293 [8])	IC50 (B16)	IC50 (HGC-27)	further results
CC1=C(C)C2=CC(=O)c3c(O)c4c(c(O)c3[C@@]2(C)CC1)OC(C)C4 (some centres undefined)	1.2 µM	6.4 µM	5.3 µM	Activity (HEK293 [1]): 46.58%; Activity (HEK293 [2]): 16.14%; Activity (HEK293 [3]): 16.12%; Activity (HEK293 [4]): 40.45%; Activity (HEK293 [5]): 23.92%; Activity (HEK293 [6]): 45.43%; Activity (HEK293 [7]): 23.57%; Activity (HEK293 [9]): 34.88%; Activity (HEK293 [10]): 43.44%; Activity (HEK293 [11]): 22.5%; Activity (HEK293 [12]): 33.72%; Activity (HEK293 [13]): 29.5%; Activity (HEK293 [14]): 50.14%; Activity (HEK293 [15]): 42.62%; Activity (HEK293 [16]): 31.01%
CC1=C(C(=O)O)[C@@H]2CC(=O)c3cc(CC(C)O)c(O[C@@H]4O[C@H](CO)[C@@H](O)[C@H](O)[C@H]4O)c(O)c3[C@@]2(C)CC1 (some centres undefined)	> 10 µM	> 10 µM	> 10 µM	
C[C@H](CO)c1cc2c(c(O)c1O[C@@H]1O[C@H](CO)[C@@H](O)[C@H](O)[C@H]1O)[C@@]1(C)CCC[C@](C)(C(=O)O[C@@H]3O[C@H](CO)[C@@H](O)[C@H](O)[C@H]3O)[C@@H]1CC2	> 10 µM	> 10 µM	> 10 µM	
CC1=C(C)C2=CC(=O)c3c(c(O)c4oc(C)cc4c3O)[C@@]2(C)CC1=O	> 10 µM	> 10 µM	> 10 µM	
C[C@H](CO)c1cc2c(c(O)c1O[C@@H]1O[C@H](CO)[C@@H](O)[C@H](O)[C@H]1O)[C@@]1(C)CC[C@H](O)C(C)(C)[C@@H]1CC2	> 10 µM	> 10 µM	> 10 µM	
C[C@H](CO)c1cc2c(c(O)c1O[C@@H]1O[C@H](CO)[C@@H](O)[C@H](O)[C@H]1O)[C@@]1(C)CC[C@H](O[C@@H]3O[C@H](CO)[C@@H](O)[C@H](O)[C@H]3O)C(C)(C)[C@@H]1CC2	> 10 µM	> 10 µM	> 10 µM	
CC1=C(CO)C2=CC(=O)c3c(c(O)c4oc(C)cc4c3O)[C@@]2(C)CC1=O	> 10 µM	> 10 µM	> 10 µM	
C[C@H](CO)c1cc2c(c(O)c1O[C@@H]1O[C@H](CO)[C@@H](O)[C@H](O)[C@H]1O)[C@@]1(C)CCC[C@](C)(CO[C@@H]3O[C@H](CO)[C@@H](O)[C@H](O)[C@H]3O)[C@@H]1CC2	> 10 µM	> 10 µM	> 10 µM	
